Paper PMC10141516 (Pharmaceutics, 2023)

Assays:
[1] = Compatibility study API-excipient / API-API (total impurities by HPLC); assay type: physicochemical
Protocol: The column used was the Gemini C18 column (5.0 μm, 250 mm). […] The mobile phase was filtered through a 0.4 μm polypropylene membrane filter and degassed via sonication. […] The column and sample thermostats were set to 35 °C and 5 °C, respectively. […] The compatibility study was performed using appearance and impurity tests to confirm the interaction between each API and the excipient. Each API was mixed with mannitol, microcrystalline cellulose, lactose, silicified microcrystalline cellulose, calcium hydrogen phosphate anhydrous, pregelatinized starch, sodium starch glycolate, crospovidone, sodium croscarmellose, magnesium stearate, colloidal silicon dioxide, sodium stearyl fumarate, hydroxypropyl cellulose, calcium hydroxide, citric acid, and OPADRY II pink in a 1:1 (w/w) ratio and put into each clear glass vial.

[2] = Equilibrium solubility test (HPLC); settings: for solubility thermodynamic at 12 h / solubility thermodynamic at 24 h: thermodynamic from solid
Protocol: The column used was an Agilent C18 column (5.0 μm, 4.6 × 150 mm). The mobile phase and diluted solution of the content and dissolution studies analyses were prepared with 0.5% triethylamine buffer (v/v, pH 6.8 adjusted with 85% phosphoric acid) and acetonitrile at a ratio of 7:3 (v/v). The mobile phase was filtered through a 0.45-μm polypropylene membrane filter and degassed via sonication. The wavelength, flow rate, and injection volume were set to 205 nm, 1.5 mL/min, and 20 μL, respectively. In the case of the content and dissolution studies, the mobile phase was constantly flowed for 18 min via an isocratic elution method and analyzed.
The equilibrium solubility test was used to calculate the input amount through the apparent solubility test result, and an excess of the API was placed in each beaker and stirred at 400 rpm. At 0, 12, and 24 h immediately after the overdose, 2 mL samples were taken and filtered through a 0.45-μm regenerated cellulose syringe filter. The supernatant of the filtered solution was taken and diluted with a content analysis diluted solution. […] A calibration test was performed, and the sample was diluted with a diluted solution and prepared at a concentration of 0.05–1 mg/mL.

[3] = oral; cited from earlier work
[4] = cited from earlier work
[5] = Stability study of the APIs in pH buffers (total impurity by HPLC); assay type: physicochemical
Protocol: The column used was the Gemini C18 column (5.0 μm, 250 mm). Mobile phase A of the impurity study was prepared with KH2PO4 buffer (v/v, solution adjusted to pH 6.0 with 1 M KOH): acetonitrile: methanol = 85: 10: 5 (v/v/v), and mobile phase B was prepared with 90% acetonitrile. The mobile phase was filtered through a 0.4 μm polypropylene membrane filter and degassed via sonication. The diluted solution was prepared with KH2PO4 buffer (v/v, solution adjusted to pH 6.0 with 1 M KOH) and acetonitrile at a ratio of 7:3 (v/v). The wavelength, flow rate, and injection volume were set to 220 nm, 1.0 mL/min, and 20 μL, respectively. The column and sample thermostats were set to 35 °C and 5 °C, respectively. In the case of the impurity study, the analysis was performed by changing the composition of the mobile phase for 80 min using a gradient elution method for 80 min.
[…] […] We performed a calibration test, and the sample was diluted with a diluted solution and prepared at a concentration of 0.05–1 mg/mL.

[6] = buffer solution, pH 3, aqueous buffer
[7] = buffer solution, pH 4, aqueous buffer
[8] = buffer solution, pH 5, aqueous buffer
[9] = buffer solution, pH 6, aqueous buffer
[10] = buffer solution, pH 6.8, aqueous buffer
[11] = buffer solution, pH 7, aqueous buffer
[12] = buffer solution, pH 8, aqueous buffer
[13] = buffer solution, pH 9, aqueous buffer
[14] = buffer solution, pH 10, aqueous buffer
[15] = pH 1.2 buffer solution, pH 1.2, aqueous buffer
[16] = pH 2.0 buffer solution, pH 2, aqueous buffer
[17] = pH 12.0 buffer solution, pH 12, aqueous buffer

Total Impurities ([1]; 20 ± 2 °C/60 ± 5% RH, 2 Weeks): 0.10% | Total Impurities ([1]; 20 ± 2 °C/60 ± 5% RH, 4 Weeks): 0.09% | Total Impurities ([1]; 40 ± 2 °C/75 ± 5% RH, 2 Weeks): 0.08% | Total Impurities ([1]; 40 ± 2 °C/75 ± 5% RH, 4 Weeks): 0.12% | Total Impurities ([1]; Initial): 0.09% | amount dissolved in dissolution medium ([2]; 900 mL of dissolution medium): more than 0.33 mg per 1 mL | solubility thermodynamic at 12 h [2, 6]: 400 µg/mL | solubility thermodynamic at 24 h [2, 6]: 400 µg/mL | solubility thermodynamic at 12 h [2, 7]: 370 µg/mL | solubility thermodynamic at 24 h [2, 7]: 370 µg/mL | solubility thermodynamic at 12 h [2, 8]: 370 µg/mL | solubility thermodynamic at 24 h [2, 8]: 370 µg/mL | solubility thermodynamic at 12 h [2, 9]: 320 µg/mL | solubility thermodynamic at 24 h [2, 9]: 320 µg/mL | solubility thermodynamic at 12 h [2, 10]: 330 µg/mL | solubility thermodynamic at 24 h [2, 10]: 330 µg/mL | solubility thermodynamic at 12 h [2, 11]: 320 µg/mL | solubility thermodynamic at 24 h [2, 11]: 320 µg/mL | solubility thermodynamic at 12 h [2, 12]: 350 µg/mL | solubility thermodynamic at 24 h [2, 12]: 350 µg/mL | solubility thermodynamic at 12 h [2, 13]: 340 µg/mL | solubility thermodynamic at 24 h [2, 13]: 340 µg/mL | solubility thermodynamic at 12 h [2, 14]: 340 µg/mL | solubility thermodynamic at 24 h [2, 14]: 340 µg/mL | solubility thermodynamic at 12 h ([2]; buffer solution, pH 11, aqueous buffer): 210 µg/mL | solubility thermodynamic at 12 h ([2]; deionized water, water): 290 µg/mL | solubility thermodynamic at 24 h ([2]; deionized water, water): 290 µg/mL | solubility thermodynamic at 12 h [2, 15]: 340 µg/mL | solubility thermodynamic at 24 h [2, 15]: 340 µg/mL | solubility thermodynamic at 12 h [2, 16]: 350 µg/mL | solubility thermodynamic at 24 h [2, 16]: 350 µg/mL | solubility thermodynamic at 24 h ([2]; pH 11.0 buffer solution, pH 11, aqueous buffer): 210 µg/mL | solubility thermodynamic at 12 h [2, 17]: 240 µg/mL | solubility thermodynamic at 24 h [2, 17]: 240 µg/mL | Total Impurity ([5]; pH 1.2 buffer, 20 ± 2 °C/60 ± 5% RH, 3 Days): 0.08% | Total Impurity ([5]; pH 1.2 buffer, 20 ± 2 °C/60 ± 5% RH, 7 Days): 0.12% | Total Impurity ([5]; pH 1.2 buffer, 40 ± 2 °C/75 ± 5% RH, 3 Days): 0.11% | Total Impurity ([5]; pH 1.2 buffer, 40 ± 2 °C/75 ± 5% RH, 7 Days): 0.73% | Total Impurity ([5]; pH 1.2 buffer, Initial): 0.06% | Total Impurity ([5]; pH 2.0 buffer, 20 ± 2 °C/60 ± 5% RH, 3 Days): 0.00% | Total Impurity ([5]; pH 2.0 buffer, 20 ± 2 °C/60 ± 5% RH, 7 Days): 0.00% | Total Impurity ([5]; pH 2.0 buffer, 40 ± 2 °C/75 ± 5% RH, 3 Days): 0.02% | Total Impurity ([5]; pH 2.0 buffer, 40 ± 2 °C/75 ± 5% RH, 7 Days): 1.03% | Total Impurity ([5]; pH 2.0 buffer, Initial): 0.00% | Total Impurity ([5]; pH 3.0 buffer, 20 ± 2 °C/60 ± 5% RH, 3 Days): 1.30% | Total Impurity ([5]; pH 3.0 buffer, 20 ± 2 °C/60 ± 5% RH, 7 Days): 1.99% | Total Impurity ([5]; pH 3.0 buffer, 40 ± 2 °C/75 ± 5% RH, 3 Days): 7.29% | Total Impurity ([5]; pH 3.0 buffer, 40 ± 2 °C/75 ± 5% RH, 7 Days): 14.76% | Total Impurity ([5]; pH 3.0 buffer, Initial): 0.06% | Total Impurity ([5]; pH 4.0 buffer, 20 ± 2 °C/60 ± 5% RH, 3 Days): 0.00% | Total Impurity ([5]; pH 4.0 buffer, 20 ± 2 °C/60 ± 5% RH, 7 Days): 0.01% | Total Impurity ([5]; pH 4.0 buffer, 40 ± 2 °C/75 ± 5% RH, 3 Days): 0.04% | Total Impurity ([5]; pH 4.0 buffer, 40 ± 2 °C/75 ± 5% RH, 7 Days): 0.12% | Total Impurity ([5]; pH 4.0 buffer, Initial): 0.00% | Total Impurity ([5]; pH 5.0 buffer, 20 ± 2 °C/60 ± 5% RH, 3 Days): 0.16% | Total Impurity ([5]; pH 5.0 buffer, 20 ± 2 °C/60 ± 5% RH, 7 Days): 0.26% | Total Impurity ([5]; pH 5.0 buffer, 40 ± 2 °C/75 ± 5% RH, 7 Days): 4.48% | Total Impurity ([5]; pH 5.0 buffer, Initial): 0.00% | Total Impurity ([5]; pH 6.0 buffer, 20 ± 2 °C/60 ± 5% RH, 3 Days): 0.00% | Total Impurity ([5]; pH 6.0 buffer, 20 ± 2 °C/60 ± 5% RH, 7 Days): 0.04% | Total Impurity ([5]; pH 6.0 buffer, 40 ± 2 °C/75 ± 5% RH, 3 Days): 0.15% | Total Impurity ([5]; pH 6.0 buffer, 40 ± 2 °C/75 ± 5% RH, 7 Days): 0.28% | Total Impurity ([5]; pH 6.0 buffer, Initial): 0.00% | Total Impurity ([5]; pH 6.8 buffer, 20 ± 2 °C/60 ± 5% RH, 3 Days): 0.01% | Total Impurity ([5]; pH 6.8 buffer, 20 ± 2 °C/60 ± 5% RH, 7 Days): 0.01% | Total Impurity ([5]; pH 6.8 buffer, 40 ± 2 °C/75 ± 5% RH, 3 Days): 0.00% | Total Impurity ([5]; pH 6.8 buffer, 40 ± 2 °C/75 ± 5% RH, 7 Days): 0.12% | Total Impurity ([5]; pH 6.8 buffer, Initial): 0.00% | Total Impurity ([5]; pH 7.0 buffer, 20 ± 2 °C/60 ± 5% RH, 3 Days): 0.02% | Total Impurity ([5]; pH 7.0 buffer, 20 ± 2 °C/60 ± 5% RH, 7 Days): 0.04% | Total Impurity ([5]; pH 7.0 buffer, 40 ± 2 °C/75 ± 5% RH, 3 Days): 0.7% | Total Impurity ([5]; pH 7.0 buffer, 40 ± 2 °C/75 ± 5% RH, 7 Days): 0.69% | Total Impurity ([5]; pH 7.0 buffer, Initial): 0.00% | Total Impurity ([5]; pH 8.0 buffer, 20 ± 2 °C/60 ± 5% RH, 3 Days): 0.03% | Total Impurity ([5]; pH 8.0 buffer, 20 ± 2 °C/60 ± 5% RH, 7 Days): 0.05% | Total Impurity ([5]; pH 8.0 buffer, 40 ± 2 °C/75 ± 5% RH, 3 Days): 0.42% | Total Impurity ([5]; pH 8.0 buffer, 40 ± 2 °C/75 ± 5% RH, 7 Days): 1.06% | Total Impurity ([5]; pH 8.0 buffer, Initial): 0.00% | Total Impurity ([5]; pH 9.0 buffer, 20 ± 2 °C/60 ± 5% RH, 3 Days): 1.27% | Total Impurity ([5]; pH 9.0 buffer, 20 ± 2 °C/60 ± 5% RH, 7 Days): 1.47% | Total Impurity ([5]; pH 9.0 buffer, 40 ± 2 °C/75 ± 5% RH, 3 Days): 3.90% | Total Impurity ([5]; pH 9.0 buffer, 40 ± 2 °C/75 ± 5% RH, 7 Days): 6.31% | Total Impurity ([5]; pH 9.0 buffer, Initial): 1.02% | Total Impurity ([5]; pH 10.0 buffer, 20 ± 2 °C/60 ± 5% RH, 3 Days): 0.46% | Total Impurity ([5]; pH 10.0 buffer, 20 ± 2 °C/60 ± 5% RH, 7 Days): 0.66% | Total Impurity ([5]; pH 10.0 buffer, 40 ± 2 °C/75 ± 5% RH, 3 Days): 0.30% | Total Impurity ([5]; pH 10.0 buffer, 40 ± 2 °C/75 ± 5% RH, 7 Days): 4.78% | Total Impurity ([5]; pH 10.0 buffer, Initial): 0.15% | Total Impurity ([5]; pH 11.0 buffer, 20 ± 2 °C/60 ± 5% RH, 3 Days): 0.14% | Total Impurity ([5]; pH 11.0 buffer, 20 ± 2 °C/60 ± 5% RH, 7 Days): 0.22% | Total Impurity ([5]; pH 11.0 buffer, 40 ± 2 °C/75 ± 5% RH, 3 Days): 1.99% | Total Impurity ([5]; pH 11.0 buffer, 40 ± 2 °C/75 ± 5% RH, 7 Days): 3.69% | Total Impurity ([5]; pH 11.0 buffer, Initial): 0.00% | Total Impurity ([5]; pH 12.0 buffer, 20 ± 2 °C/60 ± 5% RH, 3 Days): 0.75% | Total Impurity ([5]; pH 12.0 buffer, 20 ± 2 °C/60 ± 5% RH, 7 Days): 1.05% | Total Impurity ([5]; pH 12.0 buffer, 40 ± 2 °C/75 ± 5% RH, 3 Days): 2.62% | Total Impurity ([5]; pH 12.0 buffer, 40 ± 2 °C/75 ± 5% RH, 7 Days): 4.11% | Total Impurity ([5]; pH 12.0 buffer, Initial): 0.00%
SMILES: CCOc1ccc(Cc2cc([C@@H]3O[C@H](CO)[C@@H](O)[C@H](O)[C@H]3O)ccc2Cl)cc1 [Dapagliflozin, (1S)-1,5-Anhydro-1-C-[4-chloro-3-[(4-ethoxyphenyl)methyl]phenyl]-D-glucitol (S)-propane-1,2-diol (1:1) monohydrate]
Tmax [3]: 2 h | BCS [4]: Class 3
